Laboratory results from patent publication US9340590B2 (priority 2011, dated 2016).
Positions of bridges follow the written chain, without caps; N, C: chain ends. Residues, ends and D or L forms follow the SMILES beside them.

What was measured:
Assay in all cases: cell-based
[1] = molecular target: hNav1.7 (Homo sapiens, UniProt Q15858); format: cell-based; settings: IonWorks Quattro, use-dependent block, hNav1.7; read-out: IWQ Use Nav1.7
[2] = molecular target: hNav1.3 (Homo sapiens, UniProt Q9NY46); settings: IonWorks Quattro, use-dependent block, hNav1.3; read-out: IWQ Use Nav1.3
[3] = molecular target: hNav1.5 (Homo sapiens, UniProt Q14524); settings: IonWorks Quattro, use-dependent block, hNav1.5; read-out: IWQ Use Nav1.5

hNav1.7, sequence (Q15858 whole entry, looked up): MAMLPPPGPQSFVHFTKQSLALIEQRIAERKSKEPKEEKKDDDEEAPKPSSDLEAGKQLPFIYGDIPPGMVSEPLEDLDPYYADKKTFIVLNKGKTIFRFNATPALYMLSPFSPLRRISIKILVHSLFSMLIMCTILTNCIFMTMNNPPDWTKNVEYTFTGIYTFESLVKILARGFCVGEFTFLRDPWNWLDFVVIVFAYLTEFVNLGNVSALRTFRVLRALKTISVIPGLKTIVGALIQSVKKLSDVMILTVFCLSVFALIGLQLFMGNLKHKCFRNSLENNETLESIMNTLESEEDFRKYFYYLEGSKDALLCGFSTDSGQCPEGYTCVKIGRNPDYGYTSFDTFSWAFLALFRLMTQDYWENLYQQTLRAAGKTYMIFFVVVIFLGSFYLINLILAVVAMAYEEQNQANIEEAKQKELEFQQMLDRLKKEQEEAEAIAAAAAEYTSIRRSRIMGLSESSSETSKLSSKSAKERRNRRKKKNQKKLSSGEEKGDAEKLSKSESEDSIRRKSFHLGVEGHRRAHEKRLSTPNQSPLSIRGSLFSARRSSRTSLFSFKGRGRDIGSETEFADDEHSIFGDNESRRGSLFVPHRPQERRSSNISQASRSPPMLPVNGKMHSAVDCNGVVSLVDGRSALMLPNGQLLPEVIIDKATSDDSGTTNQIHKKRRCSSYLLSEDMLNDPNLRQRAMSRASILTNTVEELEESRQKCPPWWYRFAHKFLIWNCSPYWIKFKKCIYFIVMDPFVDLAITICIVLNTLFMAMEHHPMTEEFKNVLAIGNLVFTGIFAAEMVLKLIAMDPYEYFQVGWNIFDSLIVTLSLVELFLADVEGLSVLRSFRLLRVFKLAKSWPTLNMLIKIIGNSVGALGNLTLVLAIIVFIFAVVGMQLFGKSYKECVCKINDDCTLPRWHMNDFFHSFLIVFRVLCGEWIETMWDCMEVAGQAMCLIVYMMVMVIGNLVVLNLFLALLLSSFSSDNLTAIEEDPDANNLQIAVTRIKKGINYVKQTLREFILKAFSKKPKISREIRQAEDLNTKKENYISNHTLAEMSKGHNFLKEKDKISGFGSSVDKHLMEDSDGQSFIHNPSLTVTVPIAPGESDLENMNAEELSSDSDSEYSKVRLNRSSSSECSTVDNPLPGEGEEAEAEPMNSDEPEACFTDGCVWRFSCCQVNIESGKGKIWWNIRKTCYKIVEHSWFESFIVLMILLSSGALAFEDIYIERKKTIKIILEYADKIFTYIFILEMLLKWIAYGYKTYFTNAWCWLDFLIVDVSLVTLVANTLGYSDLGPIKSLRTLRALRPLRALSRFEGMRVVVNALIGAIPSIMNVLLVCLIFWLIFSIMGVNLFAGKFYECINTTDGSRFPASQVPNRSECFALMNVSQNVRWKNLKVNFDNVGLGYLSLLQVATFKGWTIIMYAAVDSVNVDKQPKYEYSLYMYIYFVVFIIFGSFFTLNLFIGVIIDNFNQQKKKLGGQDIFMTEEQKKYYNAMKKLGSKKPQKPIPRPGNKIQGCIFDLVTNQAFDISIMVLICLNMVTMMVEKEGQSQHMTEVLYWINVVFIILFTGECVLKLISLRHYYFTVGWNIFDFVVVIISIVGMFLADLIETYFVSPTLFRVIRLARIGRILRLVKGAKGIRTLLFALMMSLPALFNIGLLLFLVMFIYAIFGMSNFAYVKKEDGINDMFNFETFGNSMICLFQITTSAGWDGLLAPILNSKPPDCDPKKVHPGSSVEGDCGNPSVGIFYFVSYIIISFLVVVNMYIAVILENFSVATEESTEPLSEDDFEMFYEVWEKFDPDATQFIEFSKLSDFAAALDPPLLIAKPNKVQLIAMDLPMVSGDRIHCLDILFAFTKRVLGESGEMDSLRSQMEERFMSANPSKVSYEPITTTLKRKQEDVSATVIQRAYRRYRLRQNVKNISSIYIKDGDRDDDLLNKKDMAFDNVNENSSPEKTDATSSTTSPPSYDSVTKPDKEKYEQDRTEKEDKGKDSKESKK
hNav1.3, sequence (Q9NY46 whole entry, looked up): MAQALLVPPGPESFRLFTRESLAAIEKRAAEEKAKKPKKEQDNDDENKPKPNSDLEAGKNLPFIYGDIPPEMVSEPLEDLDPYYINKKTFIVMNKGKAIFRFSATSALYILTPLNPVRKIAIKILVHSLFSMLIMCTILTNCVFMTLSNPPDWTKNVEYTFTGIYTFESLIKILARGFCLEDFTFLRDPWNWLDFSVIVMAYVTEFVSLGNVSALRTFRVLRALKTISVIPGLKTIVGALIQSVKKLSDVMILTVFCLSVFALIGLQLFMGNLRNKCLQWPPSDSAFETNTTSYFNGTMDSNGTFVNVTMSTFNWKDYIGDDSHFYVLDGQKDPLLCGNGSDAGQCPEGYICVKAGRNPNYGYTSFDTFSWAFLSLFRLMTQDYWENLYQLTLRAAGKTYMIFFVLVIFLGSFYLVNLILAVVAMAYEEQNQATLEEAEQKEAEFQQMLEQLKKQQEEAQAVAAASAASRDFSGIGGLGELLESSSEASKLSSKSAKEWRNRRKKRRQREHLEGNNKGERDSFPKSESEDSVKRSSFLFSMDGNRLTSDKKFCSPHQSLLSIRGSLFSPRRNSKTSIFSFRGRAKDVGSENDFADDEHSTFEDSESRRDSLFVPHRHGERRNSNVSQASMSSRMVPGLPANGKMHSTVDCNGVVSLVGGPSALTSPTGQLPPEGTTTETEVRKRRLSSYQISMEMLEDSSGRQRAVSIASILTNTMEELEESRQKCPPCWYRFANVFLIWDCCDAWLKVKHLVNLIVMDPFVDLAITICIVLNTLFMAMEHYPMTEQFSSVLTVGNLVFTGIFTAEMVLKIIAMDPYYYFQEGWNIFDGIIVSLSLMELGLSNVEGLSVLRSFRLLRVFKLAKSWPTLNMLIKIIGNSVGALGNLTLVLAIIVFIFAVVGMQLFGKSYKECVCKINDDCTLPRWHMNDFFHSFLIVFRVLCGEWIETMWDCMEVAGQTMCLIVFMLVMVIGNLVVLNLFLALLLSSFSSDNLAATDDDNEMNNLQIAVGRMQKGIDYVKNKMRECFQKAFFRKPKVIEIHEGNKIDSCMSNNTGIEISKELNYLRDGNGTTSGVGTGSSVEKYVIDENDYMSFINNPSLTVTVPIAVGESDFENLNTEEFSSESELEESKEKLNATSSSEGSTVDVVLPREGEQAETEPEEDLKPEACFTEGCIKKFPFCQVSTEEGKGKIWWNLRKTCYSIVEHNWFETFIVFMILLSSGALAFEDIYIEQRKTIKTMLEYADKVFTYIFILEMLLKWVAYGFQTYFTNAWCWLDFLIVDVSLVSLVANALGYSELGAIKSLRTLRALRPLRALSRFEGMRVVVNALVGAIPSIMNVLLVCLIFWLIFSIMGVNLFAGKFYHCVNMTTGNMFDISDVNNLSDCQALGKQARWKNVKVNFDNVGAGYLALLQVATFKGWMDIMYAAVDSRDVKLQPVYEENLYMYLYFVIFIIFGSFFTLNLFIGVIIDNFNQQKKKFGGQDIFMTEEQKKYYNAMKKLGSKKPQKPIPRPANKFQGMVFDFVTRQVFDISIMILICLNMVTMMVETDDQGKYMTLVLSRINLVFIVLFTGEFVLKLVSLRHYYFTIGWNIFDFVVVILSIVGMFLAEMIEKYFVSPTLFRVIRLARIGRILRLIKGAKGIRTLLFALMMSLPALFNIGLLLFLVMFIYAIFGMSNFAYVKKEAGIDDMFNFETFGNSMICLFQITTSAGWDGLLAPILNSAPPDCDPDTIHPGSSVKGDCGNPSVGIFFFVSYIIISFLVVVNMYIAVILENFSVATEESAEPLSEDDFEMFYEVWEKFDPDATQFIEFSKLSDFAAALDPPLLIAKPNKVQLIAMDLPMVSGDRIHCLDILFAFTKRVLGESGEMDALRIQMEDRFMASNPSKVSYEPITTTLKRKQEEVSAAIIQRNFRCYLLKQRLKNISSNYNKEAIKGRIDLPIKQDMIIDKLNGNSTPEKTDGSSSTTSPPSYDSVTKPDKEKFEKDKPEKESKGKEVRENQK

SMILES	IC50 [1]	IC50 [2]	IC50 [3]
CC[C@H](C)[C@@H]1NC(=O)[C@@H]2CSSC[C@@H]3NC(=O)[C@H](C(C)C)NC(=O)[C@H](CC(C)C)NC(=O)[C@H](CC(N)=O)NC(=O)[C@@H]4CCCN4C(=O)[C@H](CCCNC(=N)N)NC(=O)[C@H](CSSC[C@H](NC(=O)[C@H](CC(=O)O)NC(=O)[C@H](CO)NC(=O)CN)C(=O)N[C@@H](CC(C)C)C(=O)NCC(=O)N[C@@H](C)C(=O)N[C@@H](Cc4ccccc4)C(=O)N[C@@H](CCCNC(=N)N)C(=O)N[C@@H](CCCCN)C(=O)N2)NC(=O)[C@H](CSSC[C@@H](C(=O)N[C@@H](CCCCN)C(=O)N[C@@H](Cc2ccc(O)cc2)C(=O)N[C@H](C(=O)N[C@@H](Cc2ccccc2)C(=O)N[C@@H](Cc2c[nH]c4ccccc24)C(=O)O)C(C)C)NC(=O)[C@H](Cc2c[nH]c4ccccc24)NC(=O)[C@H](CCCNC(=N)N)NC(=O)[C@H](Cc2c[nH]cn2)NC(=O)[C@H]([C@@H](C)O)NC(=O)[C@H](CCCNC(=N)N)NC(=O)[C@H](CO)NC3=O)NC(=O)[C@H](CCCCN)NC(=O)[C@H](CC(=O)O)NC(=O)[C@H](CC(N)=O)NC(=O)[C@H](CC(=O)O)NC(=O)[C@@H]2CCCN2C1=O [compound 815] (H-GSDCLGAFRKCIPDNDKCCRPNLVCSRTHRWCKYVFW-OH; disulfide 4-19, 11-25, 18-32)	> 5 µM	> 5 µM	> 5 µM
CC[C@H](C)[C@@H]1NC(=O)[C@@H]2CSSC[C@@H]3NC(=O)[C@H](C(C)C)NC(=O)[C@H](CC(C)C)NC(=O)[C@H](CC(N)=O)NC(=O)[C@@H]4CCCN4C(=O)[C@H](CCCNC(=N)N)NC(=O)[C@H](CSSC[C@H](NC(=O)[C@@H](N)CC(=O)O)C(=O)N[C@@H](CC(C)C)C(=O)NCC(=O)N[C@@H](C)C(=O)N[C@@H](Cc4ccccc4)C(=O)N[C@@H](CCCNC(=N)N)C(=O)N[C@@H](CCCCN)C(=O)N2)NC(=O)[C@H](CSSC[C@@H](C(=O)N[C@@H](CCCCN)C(=O)N[C@@H](Cc2ccc(O)cc2)C(=O)N[C@H](C(=O)N[C@@H](Cc2ccccc2)C(=O)N[C@@H](Cc2ccccc2)C(=O)O)C(C)C)NC(=O)[C@H](Cc2c[nH]c4ccccc24)NC(=O)[C@H](CCCNC(=N)N)NC(=O)[C@H](Cc2c[nH]cn2)NC(=O)[C@H]([C@@H](C)O)NC(=O)[C@H](CCCNC(=N)N)NC(=O)[C@H](CO)NC3=O)NC(=O)[C@H](CCCCN)NC(=O)[C@H](CC(=O)O)NC(=O)[C@H](CC(N)=O)NC(=O)[C@H](CC(=O)O)NC(=O)[C@@H]2CCCN2C1=O [compound 817] (H-DCLGAFRKCIPDNDKCCRPNLVCSRTHRWCKYVFF-OH; disulfide 2-17, 9-23, 16-30)	1.5 µM	0.5 µM	> 5 µM
CC[C@H](C)[C@@H]1NC(=O)[C@@H]2CSSC[C@@H]3NC(=O)[C@H](C(C)C)NC(=O)[C@H](CC(C)C)NC(=O)[C@H](CC(N)=O)NC(=O)[C@@H]4CCCN4C(=O)[C@H](CCCNC(=N)N)NC(=O)[C@H](CSSC[C@H](NC(=O)[C@@H](N)CC(=O)O)C(=O)N[C@@H](CC(C)C)C(=O)NCC(=O)N[C@@H](C)C(=O)N[C@@H](CC(C)C)C(=O)N[C@@H](CCCNC(=N)N)C(=O)N[C@@H](CCCCN)C(=O)N2)NC(=O)[C@H](CSSC[C@@H](C(=O)N[C@@H](CCCCN)C(=O)N[C@@H](Cc2ccc(O)cc2)C(=O)N[C@H](C(=O)N[C@@H](Cc2ccccc2)C(=O)N[C@@H](Cc2ccccc2)C(=O)O)C(C)C)NC(=O)[C@H](Cc2c[nH]c4ccccc24)NC(=O)[C@H](CCCNC(=N)N)NC(=O)[C@H](Cc2c[nH]cn2)NC(=O)[C@H]([C@@H](C)O)NC(=O)[C@H](CCCNC(=N)N)NC(=O)[C@H](CO)NC3=O)NC(=O)[C@H](CCCCN)NC(=O)[C@H](CC(=O)O)NC(=O)[C@H](CC(N)=O)NC(=O)[C@H](CC(=O)O)NC(=O)[C@@H]2CCCN2C1=O [compound 818] (H-DCLGALRKCIPDNDKCCRPNLVCSRTHRWCKYVFF-OH; disulfide 2-17, 9-23, 16-30)	2.3 µM	0.8 µM	> 5 µM
CC[C@H](C)[C@@H]1NC(=O)[C@@H]2CSSC[C@@H]3NC(=O)[C@H](C(C)C)NC(=O)[C@H](CC(C)C)NC(=O)[C@H](CC(N)=O)NC(=O)[C@@H]4CCCN4C(=O)[C@H](CCCNC(=N)N)NC(=O)[C@H](CSSC[C@H](NC(=O)[C@H](CC(=O)O)NC(=O)[C@H](CO)NC(=O)CN)C(=O)N[C@@H](CC(C)C)C(=O)NCC(=O)N[C@@H](C)C(=O)N[C@@H](Cc4ccccc4)C(=O)N[C@@H](CCCNC(=N)N)C(=O)N[C@@H](CCCCN)C(=O)N2)NC(=O)[C@H](CSSC[C@@H](C(=O)N[C@@H](CCCCN)C(=O)N[C@@H](Cc2ccc(O)cc2)C(=O)N[C@H](C(=O)N[C@@H](Cc2ccccc2)C(=O)N[C@@H](Cc2ccccc2)C(=O)O)C(C)C)NC(=O)[C@H](Cc2c[nH]c4ccccc24)NC(=O)[C@H](CCCNC(=N)N)NC(=O)[C@H](Cc2c[nH]cn2)NC(=O)[C@H]([C@@H](C)O)NC(=O)[C@H](CCCNC(=N)N)NC(=O)[C@H](CO)NC3=O)NC(=O)[C@H](CCCCN)NC(=O)[C@H](CC(=O)O)NC(=O)[C@H](CC(N)=O)NC(=O)[C@H](CC(=O)O)NC(=O)[C@@H]2CCCN2C1=O [compound 819] (H-GSDCLGAFRKCIPDNDKCCRPNLVCSRTHRWCKYVFF-OH; disulfide 4-19, 11-25, 18-32)	1.5 µM	0.5 µM	> 5 µM
CC[C@H](C)[C@@H]1NC(=O)[C@@H]2CSSC[C@@H]3NC(=O)[C@H](C(C)C)NC(=O)[C@H](CC(C)C)NC(=O)[C@H](CC(N)=O)NC(=O)[C@@H]4CCCN4C(=O)[C@H](CCCNC(=N)N)NC(=O)[C@H](CSSC[C@H](NC(=O)[C@H](CC(=O)O)NC(=O)[C@H](CO)NC(=O)CN)C(=O)N[C@@H](CC(C)C)C(=O)NCC(=O)N[C@@H](C)C(=O)N[C@@H](Cc4ccccc4)C(=O)N[C@@H](CCCNC(=N)N)C(=O)N[C@@H](CCCCN)C(=O)N2)NC(=O)[C@H](CSSC[C@@H](C(=O)N[C@@H](CCCCN)C(=O)N[C@@H](Cc2ccc(O)cc2)C(=O)N[C@H](C(=O)N[C@@H](Cc2ccccc2)C(=O)O)C(C)C)NC(=O)[C@H](Cc2c[nH]c4ccccc24)NC(=O)[C@H](CCCNC(=N)N)NC(=O)[C@H](Cc2c[nH]cn2)NC(=O)[C@H]([C@@H](C)O)NC(=O)[C@H](CCCNC(=N)N)NC(=O)[C@H](CO)NC3=O)NC(=O)[C@H](CCCCN)NC(=O)[C@H](CC(=O)O)NC(=O)[C@H](CC(N)=O)NC(=O)[C@H](CC(=O)O)NC(=O)[C@@H]2CCCN2C1=O [compound 821] (H-GSDCLGAFRKCIPDNDKCCRPNLVCSRTHRWCKYVF-OH; disulfide 4-19, 11-25, 18-32)	3.2 µM	3.2 µM	> 5 µM
CC[C@H](C)[C@@H]1NC(=O)[C@@H]2CSSC[C@@H]3NC(=O)[C@H](C(C)C)NC(=O)[C@H](CC(C)C)NC(=O)[C@H](CC(N)=O)NC(=O)[C@@H]4CCCN4C(=O)[C@H](CCCNC(=N)N)NC(=O)[C@H](CSSC[C@H](NC(=O)[C@@H](N)CC(=O)O)C(=O)N[C@@H](CC(C)C)C(=O)NCC(=O)N[C@@H](C)C(=O)N[C@@H](Cc4ccccc4)C(=O)N[C@@H](CCCNC(=N)N)C(=O)N[C@@H](CCCCN)C(=O)N2)NC(=O)[C@H](CSSC[C@@H](C(=O)N[C@@H](CCCCN)C(=O)N[C@@H](Cc2ccc(O)cc2)C(=O)N[C@H](C(=O)N[C@@H](Cc2ccccc2)C(=O)O)C(C)C)NC(=O)[C@H](Cc2c[nH]c4ccccc24)NC(=O)[C@H](CCCNC(=N)N)NC(=O)[C@H](Cc2c[nH]cn2)NC(=O)[C@H]([C@@H](C)O)NC(=O)[C@H](CCCNC(=N)N)NC(=O)[C@H](CO)NC3=O)NC(=O)[C@H](CCCCN)NC(=O)[C@H](CC(=O)O)NC(=O)[C@H](CC(N)=O)NC(=O)[C@H](CC(=O)O)NC(=O)[C@@H]2CCCN2C1=O [compound 823] (H-DCLGAFRKCIPDNDKCCRPNLVCSRTHRWCKYVF-OH; disulfide 2-17, 9-23, 16-30)	3.4 µM	3.4 µM	> 5 µM
CC[C@H](C)[C@@H]1NC(=O)[C@@H]2CSSC[C@@H]3NC(=O)[C@H](C(C)C)NC(=O)[C@H](CC(C)C)NC(=O)[C@H](CC(N)=O)NC(=O)[C@@H]4CCCN4C(=O)[C@H](CCCNC(=N)N)NC(=O)[C@H](CSSC[C@H](NC(=O)[C@@H](N)CC(=O)O)C(=O)N[C@@H](CC(C)C)C(=O)NCC(=O)N[C@@H](C)C(=O)N[C@@H](Cc4ccccc4)C(=O)N[C@@H](CCCNC(=N)N)C(=O)N[C@@H](CCCCN)C(=O)N2)NC(=O)[C@H](CSSC[C@@H](C(=O)N[C@@H](CCCCN)C(=O)N[C@@H](Cc2ccc(O)cc2)C(=O)N[C@H](C(=O)N[C@@H](Cc2ccccc2)C(=O)O)C(C)C)NC(=O)[C@H](Cc2c[nH]c4ccccc24)NC(=O)[C@H](C)NC(=O)[C@H](Cc2c[nH]cn2)NC(=O)[C@H]([C@@H](C)O)NC(=O)[C@H](CCCNC(=N)N)NC(=O)[C@H](CO)NC3=O)NC(=O)[C@H](CCCCN)NC(=O)[C@H](CC(=O)O)NC(=O)[C@H](CC(N)=O)NC(=O)[C@H](CC(=O)O)NC(=O)[C@@H]2CCCN2C1=O [compound 824] (H-DCLGAFRKCIPDNDKCCRPNLVCSRTHAWCKYVF-OH; disulfide 2-17, 9-23, 16-30)	> 5 µM	> 5 µM	> 5 µM
CC[C@H](C)[C@@H]1NC(=O)[C@@H]2CSSC[C@@H]3NC(=O)[C@H](C(C)C)NC(=O)[C@H](CC(C)C)NC(=O)[C@H](CC(N)=O)NC(=O)[C@@H]4CCCN4C(=O)[C@H](CCCNC(=N)N)NC(=O)[C@H](CSSC[C@H](NC(=O)[C@@H](N)CC(=O)O)C(=O)N[C@@H](CC(C)C)C(=O)NCC(=O)N[C@@H](C)C(=O)N[C@@H](Cc4ccccc4)C(=O)N[C@@H](CCCNC(=N)N)C(=O)N[C@@H](CCCCN)C(=O)N2)NC(=O)[C@H](CSSC[C@@H](C(=O)N[C@@H](CCCCN)C(=O)N[C@@H](Cc2ccc(O)cc2)C(=O)N[C@H](C(=O)N[C@@H](Cc2ccccc2)C(=O)O)C(C)C)NC(=O)[C@H](Cc2c[nH]c4ccccc24)NC(=O)[C@H](CC(=O)O)NC(=O)[C@H](Cc2c[nH]cn2)NC(=O)[C@H]([C@@H](C)O)NC(=O)[C@H](CCCNC(=N)N)NC(=O)[C@H](CO)NC3=O)NC(=O)[C@H](CCCCN)NC(=O)[C@H](CC(=O)O)NC(=O)[C@H](CC(N)=O)NC(=O)[C@H](CC(=O)O)NC(=O)[C@@H]2CCCN2C1=O [compound 825] (H-DCLGAFRKCIPDNDKCCRPNLVCSRTHDWCKYVF-OH; disulfide 2-17, 9-23, 16-30)	> 5 µM	> 5 µM	> 5 µM
